Experimental data published in US9593110B2, “Neprilysin inhibitors” (Theravence Biopharma R&D IP, LLC, priority 2014, dated 2017).

Molecular target: human NEP (Homo sapiens (Human), UniProt P08473)
Experiment: In vitro enzyme inhibition assay at human NEP
Settings: pKi, recombinant human NEP, fluorogenic peptide substrate, 37° C.
Procedure: The inhibitory activities of compounds at human and rat neprilysin (EC 3.4.24.11; NEP) and human angiotensin converting enzyme (ACE) were determined using in vitro assays as described below.
The assays were performed in 384-well white opaque plates at 37° C. using the fluorogenic peptide substrates at a concentration of 10 μM in Assay Buffer (NEP: 50 mM HEPES, pH 7.5, 100 mM NaCl, 0.01% polyethylene glycol sorbitan monolaurate (Tween-20), 10 μM ZnSO4; ACE: 50 mM HEPES, pH 7.5, 100 mM NaCl, 0.01% Tween-20, 1 μM ZnSO4).
Test compounds were assayed over the range of concentrations from 10 μM to 20 pM. Test compounds were added to the enzymes and incubated for 30 minute at 37° C. prior to initiating the reaction by the addition of substrate.
Plates were read on a fluorometer with excitation and emission wavelengths set to 320 nm and 405 nm, respectively Inhibition constants were obtained by nonlinear regression of the data using the equation (GraphPad Software, Inc., San Diego, Calif.): v=v0/[1+(I/K′)] where v is the reaction rate, v0 is the uninhibited reaction rate, I is the inhibitor concentration and K′ is the apparent inhibition constant.

Chain of human NEP (P08473 52-750): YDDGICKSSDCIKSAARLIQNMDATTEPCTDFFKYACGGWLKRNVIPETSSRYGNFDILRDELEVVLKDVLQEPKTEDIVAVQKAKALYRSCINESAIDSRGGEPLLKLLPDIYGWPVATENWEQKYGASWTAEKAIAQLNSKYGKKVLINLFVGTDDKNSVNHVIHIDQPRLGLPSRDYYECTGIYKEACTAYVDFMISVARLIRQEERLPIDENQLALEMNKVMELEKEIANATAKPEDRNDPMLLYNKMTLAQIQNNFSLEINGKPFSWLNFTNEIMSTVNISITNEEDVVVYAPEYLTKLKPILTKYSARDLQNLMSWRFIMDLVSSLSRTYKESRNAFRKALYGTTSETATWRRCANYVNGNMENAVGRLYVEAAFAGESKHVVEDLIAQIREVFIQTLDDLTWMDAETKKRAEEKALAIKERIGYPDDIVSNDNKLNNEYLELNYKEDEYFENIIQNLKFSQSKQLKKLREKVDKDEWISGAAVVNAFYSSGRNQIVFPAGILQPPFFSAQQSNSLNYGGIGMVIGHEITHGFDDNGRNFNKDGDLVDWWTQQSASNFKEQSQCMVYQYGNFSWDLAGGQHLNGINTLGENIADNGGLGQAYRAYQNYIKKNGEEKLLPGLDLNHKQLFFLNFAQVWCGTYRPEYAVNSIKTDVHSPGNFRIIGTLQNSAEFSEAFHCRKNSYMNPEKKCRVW

Ki [nM]	Structure (SMILES)
≤ 1	Cc1cc(C(=O)NC(Cc2ccc(-c3cc(Cl)ccc3F)cc2)C[C@@H](CC#N)C(=O)O)sn1 (single isomer, unassigned) [Example 52-1]
≤ 1	CCc1cc(C(=O)N[C@H](Cc2ccc(-c3cc(Cl)ccc3F)cc2)C[C@@H](COC)C(=O)O)on1 [Example 1, (2S,4S)-5-(5′-Chloro-2′-fluorobiphenyl-4-yl)-4-[(3-ethylisoxazole-5-carbonyl)amino]-2-methoxymethylpentanoic Acid]
≤ 1	O=C(N[C@H](Cc1ccc(-c2cc(Cl)ccc2F)cc1)C[C@@H](CN1CC(CO)(CO)C1)C(=O)O)c1cnn[nH]1 [Example 92b, (2S,4S)-2-(3,3-Bis-hydroxymethylazetidin-1-ylmethyl)-5-(5′-chloro-2′-fluorobiphenyl-4-yl)-4-[(3H-[1,2,3]triazole-4-carbonyl)amino]pentanoic Acid]
≤ 1	O=C(N[C@H](Cc1ccc(-c2cc(Cl)ccc2F)cc1)C[C@@H](CN1CC(CO)C1)C(=O)O)c1cnn[nH]1 [Example 93b, (2S,4S)-5-(5′-Chloro-2′-fluorobiphenyl-4-yl)-2-(3-hydroxymethyl-azetidin-1-ylmethyl)-4-[(3H-[1,2,3]triazole-4-carbonyl)amino]pentanoic Acid]
≤ 1	O=C(N[C@H](Cc1ccc(-c2cc(Cl)ccc2F)cc1)C[C@@H](CN1CC[C@@H]1CO)C(=O)O)c1cnn[nH]1 [Example 94b]
≤ 1	O=C(N[C@H](Cc1ccc(-c2cc(Cl)ccc2F)cc1)C[C@@H](CN1CC[C@H]1CO)C(=O)O)c1cnn[nH]1 [Example 95b, (2S,4S)-5-(5′-Chloro-2′-fluorobiphenyl-4-yl)-2-((S)-2-hydroxymethyl-azetidin-1-ylmethyl)-4-[(3H-[1,2,3]triazole-4-carbonyl)amino]pentanoic Acid]
≤ 1	COCCCN[C@H](C[C@@H](Cc1ccc(-c2cc(Cl)ccc2F)cc1)NC(=O)c1c[nH]nn1)C(=O)O [Example 97a]
≤ 1	COCCN[C@H](C[C@@H](Cc1ccc(-c2cc(Cl)ccc2F)cc1)NC(=O)c1c[nH]nn1)C(=O)O [Example 98a, (2R,4R)-5-(5′-Chloro-2′-fluorobiphenyl-4-yl)-2-(2-methoxyethylamino)-4-[(1H-[1,2,3]triazole-4-carbonyl)amino]pentanoic Acid]
≤ 1	CN(C)CCOC[C@H](C[C@@H](Cc1ccc(-c2cc(Cl)ccc2F)cc1)NC(=O)c1c[nH]nn1)C(=O)O [Example 100, (2S,4S)-5-(5′-Chloro-2′-fluorobiphenyl-4-yl)-2-(2-dimethylamino-ethoxymethyl)-4-[(1H-[1,2,3]triazole-4-carbonyl)amino]pentanoic Acid]
≤ 1	CC1(O)CN(C[C@H](C[C@@H](Cc2ccc(-c3cc(Cl)ccc3F)cc2)NC(=O)c2c[nH]nn2)C(=O)O)C1 [Example 101b, (2S,4S)-5-(5′-Chloro-2′-fluorobiphenyl-4-yl)-2-(3-hydroxy-3-methylazetidin-1-ylmethyl)-4-[(1H-[1,2,3]triazole-4-carbonyl)amino]pentanoic Acid]
1.26 to 3.16	CC1(O)CN(C[C@@H](C[C@@H](Cc2ccc(-c3cc(Cl)ccc3F)cc2)NC(=O)c2c[nH]nn2)C(=O)O)C1 [Example 101c, (2R,4S)-5-(5′-Chloro-2′-fluorobiphenyl-4-yl)-2-(3-hydroxy-3-methylazetidin-1-ylmethyl)-4-[(1H-[1,2,3]triazole-4-carbonyl)amino]pentanoic Acid]
≤ 1	COC1CN(C[C@H](C[C@@H](Cc2ccc(-c3cc(Cl)ccc3F)cc2)NC(=O)c2c[nH]nn2)C(=O)O)C1 [Example 102b, (2S,4S)-5-(5′-Chloro-2′-fluorobiphenyl-4-yl)-2-(3-methoxyazetidin-1-ylmethyl)-4-[(1H-[1,2,3]triazole-4-carbonyl)amino]pentanoic Acid]
≤ 1	COC1CN(C[C@@H](C[C@@H](Cc2ccc(-c3cc(Cl)ccc3F)cc2)NC(=O)c2c[nH]nn2)C(=O)O)C1 [Example 102c, (2R,4S)-5-(5′-Chloro-2′-fluorobiphenyl-4-yl)-2-(3-methoxyazetidin-1-ylmethyl)-4-[(1H-[1,2,3]triazole-4-carbonyl)amino]pentanoic Acid]
≤ 1	COC[C@H]1CCN1C[C@H](C[C@@H](Cc1ccc(-c2cc(Cl)ccc2F)cc1)NC(=O)c1c[nH]nn1)C(=O)O [Example 103b, (2S,4S)-5-(5′-Chloro-2′-fluorobiphenyl-4-yl)-2-((R)-2-methoxymethylazetidin-1-ylmethyl)-4-[(3H-[1,2,3]triazole-4-carbonyl)amino]pentanoic Acid]
≤ 1	COC[C@@H]1CCN1C[C@H](C[C@@H](Cc1ccc(-c2cc(Cl)ccc2F)cc1)NC(=O)c1c[nH]nn1)C(=O)O [Example 103d, (2S,4S)-5-(5′-Chloro-2′-fluorobiphenyl-4-yl)-2-((S)-2-methoxymethylazetidin-1-ylmethyl)-4-[(3H-[1,2,3]triazole-4-carbonyl)amino]pentanoic Acid]
≤ 1	O=C(N[C@H](Cc1ccc(-c2cc(Cl)ccc2F)cc1)C[C@@H](CN1CC(CCO)C1)C(=O)O)c1c[nH]nn1 [Example 105, (2S,4S)-5-(5′-Chloro-2′-fluorobiphenyl-4-yl)-2-[3-(2-hydroxyethyl)azetidin-1-ylmethyl]-4-[(1H-[1,2,3]triazole-4-carbonyl)amino]pentanoic Acid]
1.26 to 3.16	CN(CCO)C[C@H](C[C@@H](Cc1ccc(-c2cc(Cl)ccc2F)cc1)NC(=O)c1c[nH]nn1)C(=O)O [Example 106, (2S,4S)-5-(5′-Chloro-2′-fluorobiphenyl-4-yl)-2-{[(2-hydroxyethyl)-methylamino]methyl}-4-[(1H-[1,2,3]triazole-4-carbonyl)amino]pentanoic Acid]

Same assay, conditions: recombinant human NEP, fluorogenic peptide substrate, 37° C.

pKi	Structure (SMILES)
≧9.0	COC[C@H](C[C@@H](Cc1ccc(-c2cc(Cl)ccc2F)cc1)NC(=O)c1c[nH]nn1)C(=O)O [Example 2-1, (2S,4S)-5-(5′-chloro-2′-fluorobiphenyl-4-yl)-2-methoxymethyl-4-[(1H-[1,2,3]triazole-4-carbonyl)amino]pentanoic acid]
≧9.0	COC[C@H](C[C@@H](Cc1ccc(-c2cc(Cl)ccc2F)cc1)NC(=O)c1n[nH]c(C(F)(F)F)n1)C(=O)O [Example 2-2, (2S,4S)-5-(5′-Chloro-2′-fluorobiphenyl-4-yl)-2-methoxymethyl-4-[(5-trifluoromethyl-1H-[1,2,4]triazole-3-carbonyl)amino]pentanoic acid]
≧9.0	NC(=O)C1CN(C[C@H](C[C@@H](Cc2ccc(-c3cc(Cl)ccc3F)cc2)NC(=O)c2cnn[nH]2)C(=O)O)C1 [Example 96b, (2S,4S)-2-(3-Carbamoylazetidin-1-ylmethyl)-5-(5′-chloro-2′-fluorobiphenyl-4-yl)-4-[(3H-[1,2,3]triazole-4-carbonyl)amino]pentanoic Acid]
≧9.0	CC(C)(N)[C@H](C[C@@H](Cc1ccc(-c2cc(Cl)ccc2F)cc1)NC(=O)c1cnn[nH]1)C(=O)O [Example 104, (2S,4S)-2-(1-Amino-1-methylethyl)-5-(5′-chloro-2′-fluorobiphenyl-4-yl)-4-[(3H-[1,2,3]triazole-4-carbonyl)amino]pentanoic Acid]

System: not listed separately
Experiment: Rat PO cassette assay (oral bioavailability)
Type: in vivo, Sprague-Dawley rats
Settings: male, Sprague-Dawley, plasma, single oral gavage vs intravenous dose, 0.5 mg/kg
Text: Oral bioavailability, or % F, is a measure of the percentage of a drug in an oral dose that actually reaches the systemic circulation. Compound losses can occur due to incomplete formulation dissolution, incomplete absorption due to compound insolubility or instability along the GI, or metabolism in the gut or across the gut wall. The fraction of the dose which reaches the hepatic portal vein must also then pass through the liver before reaching the systemic circulation. Compound metabolism, or “first-pass extraction,” can occur during this initial passage through the liver, and this is an additional potential source of compound loss. Oral bioavailability is calculated as the dose-normalized ratio of drug exposure after an oral dose to that after an intravenous dose, wherein the entire dose is delivered directly to the systemic circulation.
Each cassette study begins with 10 mM DMSO stock solutions of up to 5 different compounds. Typically, compounds are selected such no two compounds dosed in the same cassette have a molecular weight within 5 Da of each other. This simplifies subsequent bioanalysis. Appropriate volumes of each DMSO stock are added into a volume of vehicle (5% sodium bicarbonate, 5% dextrose in H2O) such that the final concentration of each compound is 0.25 mg/mL. Intravenous dosing solutions are sterile-filtered (0.2 μm) prior to dosing.
Pre-cannulated male Sprague-Dawley rats (3 per cassette per route) between 8 and 10 weeks of age were obtained from Harlan Laboratories (Indianapolis, Ind.). Rats received either a single oral gavage or a single intravenous (via lateral tail vein) dose (2 mL/kg) of the dosing solution. The final dose was 0.5 mg/kg. Serial blood samples were harvested via jugular vein cannula at 3 minutes, 15 minutes, 30 minutes, 1 hours, 2 hours, 4 hours, 6 hours, and 24 hours post-dose. Sampling was performed either manually or using automated blood samplers. Samples were collected into microtainer tubes containing EDTA as the anticoagulant and are processed to plasma by refrigerated centrifugation.
Plasma samples were extracted with 3 volumes of MeCN containing a suitable internal standard. Extracts were reconstituted into 3 volumes of water containing 1% formic acid, and analyzed via HPLC-coupled MS/MS. Plasma concentration-time data were analyzed using the Phoenix software (Pharsight Corp., St. Louis, Mo.) to calculate pharmacokinetic parameters.
Compounds of the invention of particular interest were those having a % F>10%, when tested in this assay.

bioavailability [%]	Structure (SMILES)
> 10	Cc1cc(C(=O)NC(Cc2ccc(-c3cc(Cl)ccc3F)cc2)C[C@@H](CC#N)C(=O)O)sn1 (single isomer, unassigned) [Example 52-1]
> 10	CCc1cc(C(=O)N[C@H](Cc2ccc(-c3cc(Cl)ccc3F)cc2)C[C@@H](COC)C(=O)O)on1 [Example 1, (2S,4S)-5-(5′-Chloro-2′-fluorobiphenyl-4-yl)-4-[(3-ethylisoxazole-5-carbonyl)amino]-2-methoxymethylpentanoic Acid]
> 10	COC[C@H](C[C@@H](Cc1ccc(-c2cc(Cl)ccc2F)cc1)NC(=O)c1c[nH]nn1)C(=O)O [Example 2-1, (2S,4S)-5-(5′-chloro-2′-fluorobiphenyl-4-yl)-2-methoxymethyl-4-[(1H-[1,2,3]triazole-4-carbonyl)amino]pentanoic acid]
> 10	COC[C@H](C[C@@H](Cc1ccc(-c2cc(Cl)ccc2F)cc1)NC(=O)c1n[nH]c(C(F)(F)F)n1)C(=O)O [Example 2-2, (2S,4S)-5-(5′-Chloro-2′-fluorobiphenyl-4-yl)-2-methoxymethyl-4-[(5-trifluoromethyl-1H-[1,2,4]triazole-3-carbonyl)amino]pentanoic acid]
> 10	CCOC(=O)[C@H](N)C[C@@H](Cc1ccc(-c2cc(Cl)ccc2F)cc1)NC(=O)c1coc(=O)[nH]1 [Example 16-32, (2R,4R)-2-Amino-5-(5′-chloro-2′-fluorobiphenyl-4-yl)-4-[(2-oxo-2,3-dihydro-oxazole-4-carbonyl)amino]pentanoic acid ethyl ester]
> 10	CCOC(=O)[C@@H](C[C@@H](Cc1ccc(-c2cc(Cl)ccc2F)cc1)NC(=O)c1cnn[nH]1)CN1CCOCC1 [Example 69b, (2S,4S)-5-(5′-Chloro-2′-fluorobiphenyl-4-yl)-2-morpholin-4-ylmethyl-4-[(3H-[1,2,3]triazole-4-carbonyl)amino]pentanoic Acid Ethyl Ester]
> 10	CCOC(=O)[C@@H](C[C@@H](Cc1ccc(-c2cc(Cl)ccc2F)cc1)NC(=O)c1cnn[nH]1)CN1CCC1 [Example 84a, (2S,4S)-2-Azetidin-1-ylmethyl-5-(5′-chloro-2′-fluorobiphenyl-4-yl)-4-[(3H-[1,2,3]triazole-4-carbonyl)amino]pentanoic Acid Ethyl Ester]
> 10	CCOC(=O)[C@@H](C[C@@H](Cc1ccc(-c2cc(Cl)ccc2F)cc1)NC(=O)c1cnn[nH]1)CN1CC(F)C1 [Example 91a, (2S,4S)-5-(5′-Chloro-2′-fluorobiphenyl-4-yl)-2-(3-fluoroazetidin-1-ylmethyl)-4-[(3H-[1,2,3]triazole-4-carbonyl)amino]pentanoic Acid Ethyl Ester]
